Source: ChEMBL document CHEMBL1143560, “Discovery of bicycloalkyl urea melanin concentrating hormone receptor antagonists: orally efficacious antiobesity therapeutics” (J Med Chem, 2005)
pKi: −log10 of the molar value.

Tests used:
Mus musculus [1] = test: In vivo efficacy of compound for food intake by the mice in 24 hr after peroral administration at 30 mpk expressed as percent of vehicle; format: functional
[2] = molecular target: T1, Melanin-concentrating hormone receptor 1 (Homo sapiens, UniProt Q99705); test: Inhibition constant for human Melanin concentrating hormone receptor 1
T1 sequence (Q99705 whole entry): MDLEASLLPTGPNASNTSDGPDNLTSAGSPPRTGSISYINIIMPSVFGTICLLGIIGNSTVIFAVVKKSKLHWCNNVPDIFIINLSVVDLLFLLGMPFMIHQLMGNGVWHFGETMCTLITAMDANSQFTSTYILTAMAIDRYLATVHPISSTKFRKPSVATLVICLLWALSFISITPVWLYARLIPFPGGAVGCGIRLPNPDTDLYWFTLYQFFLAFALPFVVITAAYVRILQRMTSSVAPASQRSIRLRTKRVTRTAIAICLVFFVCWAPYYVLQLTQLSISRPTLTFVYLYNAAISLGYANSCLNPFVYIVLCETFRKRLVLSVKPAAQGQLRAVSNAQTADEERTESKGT

[3] = molecular target: Melanin-concentrating hormone receptor 1 (Mus musculus) (UniProt Q8JZL2); test: Ex vivo inhibition of MCH-ADO binding to Melanin concentrating hormone receptor 1 in mice (n=3) 24 hr r after 30 mg/kg peroral dose; format: organism-based; design: dose 30 mg/kg; details: at 30 mg/kg
Melanin-concentrating hormone receptor 1 (Mus musculus), sequence (Q8JZL2 whole entry): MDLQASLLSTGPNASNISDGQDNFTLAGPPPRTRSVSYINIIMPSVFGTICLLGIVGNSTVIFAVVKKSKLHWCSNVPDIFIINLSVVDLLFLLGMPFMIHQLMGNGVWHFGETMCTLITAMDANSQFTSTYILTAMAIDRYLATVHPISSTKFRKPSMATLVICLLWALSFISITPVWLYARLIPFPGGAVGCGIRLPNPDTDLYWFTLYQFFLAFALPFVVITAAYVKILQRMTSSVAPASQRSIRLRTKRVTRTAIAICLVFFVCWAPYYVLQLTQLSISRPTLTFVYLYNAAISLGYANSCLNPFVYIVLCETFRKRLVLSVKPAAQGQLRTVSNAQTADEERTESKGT

[4] = Bioavailability of compound in rats (n= 3) after oral administration at 10 mpk; format: ADME, organism-based; details: rat, in vivo, 10 mg/kg
Mus musculus [5] = test: In vivo efficacy of compound for food intake by the mice in 6 hr after peroral administration at 30 mpk expressed as percent of vehicle; format: functional
[6] = Half life of compound in rats (n= 3) after intravenous administration at 10 mpk; format: ADME, organism-based; details: rat, in vivo, 10 mg/kg
[7] = molecular target: T1, Melanin-concentrating hormone receptor 1; test: Inhibition of [Ca2+] influx mediated by human Melanin concentrating hormone receptor 1 expressing cells; format: functional
[8] = molecular target: Melanin-concentrating hormone receptor 1 (Mus musculus, UniProt Q8JZL2); test: Inhibition constant for mouse Melanin concentrating hormone receptor 1
Melanin-concentrating hormone receptor 1 (Mus musculus, UniProt Q8JZL2), sequence (Q8JZL2 whole entry): as above

[9] = Steady state volume distribution of compound in rats (n= 3) after oral administration at 10 mpk; format: ADME, organism-based; details: rat, in vivo, 10 mg/kg
[10] = molecular target: Melanin-concentrating hormone receptor 1 (Mus musculus) (UniProt Q8JZL2); test: Ex vivo inhibition of MCH-ADO binding to Melanin concentrating hormone receptor 1 in mice (n=3) 6 hr after 30 mg/kg peroral dose; format: organism-based; design: dose 30 mg/kg; details: at 30 mg/kg
Mus musculus [11] = test: In vivo efficacy of compound for food intake by the mice in 2 h after peroral administration at 30 mpk expressed as percent of vehicle; format: functional
[12] = Area under concentration time curve (from 0-24 hr) for compound in rats (n= 3) after oral administration at 10 mpk; format: ADME; design: dose 10 mpk, time < 24 hr, route oral; details: rat, in vivo, 10 mg/kg
[13] = molecular target: Melanin-concentrating hormone receptor 2 (Homo sapiens, UniProt Q969V1); test: Inhibition constant for human Melanin concentrating hormone receptor 2
Melanin-concentrating hormone receptor 2, sequence (Q969V1 whole entry): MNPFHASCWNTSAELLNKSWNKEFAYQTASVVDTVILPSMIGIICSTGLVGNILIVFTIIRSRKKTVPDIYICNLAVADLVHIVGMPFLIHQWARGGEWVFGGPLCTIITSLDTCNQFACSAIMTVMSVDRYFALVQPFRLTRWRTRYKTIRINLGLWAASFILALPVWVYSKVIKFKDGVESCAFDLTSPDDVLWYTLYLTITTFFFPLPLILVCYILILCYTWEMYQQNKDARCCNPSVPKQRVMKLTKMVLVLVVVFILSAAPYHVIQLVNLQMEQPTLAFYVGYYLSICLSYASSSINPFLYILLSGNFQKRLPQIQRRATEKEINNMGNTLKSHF

[14] = Clearance of compound in rats (n= 3) after intravenous administration at 10 mpk; format: ADME, organism-based; details: rat, in vivo, 10 mg/kg
Rattus norvegicus [15] = test: Reduction of food intake by rats after 6 hr of administration was measured; format: functional
Rattus norvegicus [16] = test: Suppression of Melanin concentrating hormone receptor-stimulated food intake in lean rats after 30 mg/kg dose; format: functional
Mus musculus [17] = test: Reduction in milk consumption by fasted mouse after oral administration
Rattus norvegicus [18] = test: Oral efficacy for reduction in body weight of rats after 4 days of administration; Range is 15-20%; format: functional

For `CN1CCN(CCCCN(C(=O)Nc2ccc(F)c(C(F)(F)F)c2)[C@@H]2CC[C@]3(c4ccc(C#N)cc4)C[C@H]23)CC1`, which Efficacy (Mus musculus [1]) is on record?
The Efficacy was 78.1%.

What about the pKi [2] of the same molecule?
The pKi was 8.57.

What about the inhibition [3] of the same molecule?
The inhibition was 58%.

What about the bioavailability [4] of the same molecule?
Its bioavailability is 27%.

What about the Efficacy (Mus musculus [5]) of the same molecule?
The Efficacy was 76%.

What about the half-life [6] of the same molecule?
The half-life was 4 h.

And the Kb [7]?
Its Kb is 1.9 nM.

And the pKi [8]?
Its pKi is 8.52.

What about the “Vd(ss)” value [9] of the same molecule?
The value was 5.6 L/kg.

What about the inhibition [10] of the same molecule?
The inhibition was 99%.

What about the Efficacy (Mus musculus [11]) of the same molecule?
Its Efficacy is 77.3%.

What about the AUC [12] of the same molecule?
The AUC was 2140 ng·h/mL.

And the pKi [13]?
Its pKi is less than 5.52.

What about the clearance [14] of the same molecule?
Its clearance is 21.8 mL/min/kg.

With `C[C@]1(c2cccc(C#N)c2)CC[C@H](N(CCN2CC[C@@H](O)C2)C(=O)Nc2ccc(F)c(C(F)(F)F)c2)CC1` as the molecule, how does the pKi [2] read?
The pKi was 6.41.

And the pKi [13]?
Its pKi is less than 5.52.

With `N#Cc1cccc(-c2ccc(N(CCN3CC[C@@H](O)C3)C(=O)Nc3ccc(F)c(C(F)(F)F)c3)cc2)c1` as the molecule, how does the pKi [2] read?
Its pKi is 8.05.

What about the Kb [7] of the same molecule?
Its Kb is 2 nM.

And the pKi [8]?
The pKi was 8.02.

What about the pKi [13] of the same molecule?
The pKi was less than 5.52.

For `Cc1cc(N(C)CCN(C)C)nc2ccc(NC(=O)/C=C/c3ccc(OC(F)(F)F)cc3)cc12`, which Reduction (Rattus norvegicus [15]) is on record?
Its Reduction is greater than 30%.

Which Efficacy (Mus musculus [1]) does the source give for `N#Cc1ccccc1[C@]12CC[C@@H](N(CCN3CC[C@@H](O)C3)C(=O)Nc3ccc(F)c(C(F)(F)F)c3)[C@H]1C2` here?
Its Efficacy is 80.8%.

And the pKi [2]?
The pKi was 8.15.

What about the Efficacy (Mus musculus [5]) of the same molecule?
Its Efficacy is 68.2%.

What about the inhibition [10] of the same molecule?
Its inhibition is 81%.

And the Efficacy (Mus musculus [11])?
Its Efficacy is 65.7%.

What about the pKi [13] of the same molecule?
Its pKi is less than 5.52.

With `N#Cc1cccc([C@H]2CC[C@@H](N(CCN3CC[C@@H](O)C3)C(=O)Nc3ccc(F)c(C(F)(F)F)c3)CC2)c1` as the molecule, how does the pKi [2] read?
Its pKi is 5.69.

What about the pKi [13] of the same molecule?
Its pKi is less than 5.52.

What does the source list for `N#Cc1ccc([C@]23CC[C@@H](N(CCN4CCCC4)C(=O)Nc4cc(Cl)cc(Cl)c4)[C@H]2C3)cc1`?
Efficacy (Mus musculus [1]): 94.7%; pKi [2]: 7.74; Efficacy (Mus musculus [5]): 86.6%; inhibition [10]: 76%; Efficacy (Mus musculus [11]): 78.4%; pKi [13]: < 5.52

With `CN(C)CC1CCc2cc(NC(=O)c3ccc(-c4ccc(F)cc4)cc3)ccc2C1` (configuration not stated) as the molecule, how does the Suppression (Rattus norvegicus [16]) read?
The Suppression was greater than 90%.

With `N#Cc1cccc([C@H]2CC[C@H](N(CCN3CC[C@@H](O)C3)C(=O)Nc3ccc(F)c(C(F)(F)F)c3)CC2)c1` as the molecule, how does the pKi [2] read?
The pKi was 6.67.

What about the pKi [13] of the same molecule?
The pKi was less than 5.52.

With `N#Cc1cccc([C@@]23CC[C@@H](N(CCN4CC[C@@H](O)C4)C(=O)Nc4ccc(F)c(Cl)c4)CC2C3)c1` (some centres not stated) as the molecule, how does the pKi [13] read?
Its pKi is less than 5.52.

Which Reduction (Mus musculus [17]) does the source give for `CC(=O)N(C)C1CCN(c2ccc(NC(=O)N3CCC(c4ccc(Cl)cc4)CC3)cc2)C1` (configuration not stated) here?
The Reduction was 64%.

With `CN(C)c1nc(N[C@H]2CC[C@@H](NC(=O)c3ccc(F)c(F)c3)CC2)nc2ccccc12` as the molecule, how does the Efficacy (Rattus norvegicus [18]) read?
Its Efficacy is 20%.

With `C[C@]1(c2cccc(C#N)c2)CC[C@@H](N(CCN2CC[C@@H](O)C2)C(=O)Nc2ccc(F)c(C(F)(F)F)c2)CC1` as the molecule, how does the pKi [2] read?
The pKi was less than 5.52.

And the pKi [13]?
Its pKi is less than 5.52.

For `N#Cc1cccc([C@@]23CC[C@@H](N(CCN4CC[C@@H](O)C4)C(=O)Nc4ccc(F)c(Cl)c4)C[C@@H]2C3)c1`, which Efficacy (Mus musculus [1]) is on record?
Its Efficacy is 98.6%.

What about the inhibition [3] of the same molecule?
Its inhibition is 8%.

What about the Efficacy (Mus musculus [5]) of the same molecule?
The Efficacy was 99%.

And the pKi [8]?
Its pKi is 8.11.

And the inhibition [10]?
Its inhibition is 62%.

And the Efficacy (Mus musculus [11])?
Its Efficacy is 80%.

And the pKi [13]?
Its pKi is less than 5.52.

With `N#Cc1cccc([C@]23CC[C@@H](N(CCN4CC[C@@H](O)C4)C(=O)Nc4ccc(F)c(Cl)c4)CC2C3)c1` (some centres not stated) as the molecule, how does the pKi [8] read?
Its pKi is 7.97.

And the pKi [13]?
Its pKi is less than 5.52.

Which results are given for `N#Cc1cccc([C@]23CC[C@@H](N(CCN4CC[C@@H](O)C4)C(=O)Nc4ccc(F)c(Cl)c4)C[C@H]2C3)c1`?
Efficacy (Mus musculus [1]): 94.9%; inhibition [3]: 13%; Efficacy (Mus musculus [5]): 93.6%; pKi [8]: 8.23; inhibition [10]: 50%; Efficacy (Mus musculus [11]): 85%; pKi [13]: < 5.52

With `N#Cc1cccc(C2=CCC(N(CCN3CCCC3)C(=O)Nc3ccc(F)c(Cl)c3)CC2)c1` (configuration not stated) as the molecule, how does the pKi [2] read?
The pKi was 8.52.

What about the Kb [7] of the same molecule?
The Kb was 9 nM.

And the pKi [13]?
Its pKi is less than 5.52.
